The values below come from US20130296358A1, “3-SPIROCYCLIC PIPERIDINE DERIVATIVES AS GHRELIN RECEPTOR AGONISTS” (priority 2012, published 2013).

Experiment [1] has as its target T1, human recombinant ghrelin receptor (GHS-R1a) (Homo sapiens, UniProt Q92847).
T1 construct: host or cells: CHO-K1
Put plainly: cAMP assay (HTRF), CHO-hGHS-R1a cells. Format: cell-based. On the procedure: (§1) Chinese hamster ovary (CHO-K1) cells expressing human recombinant ghrelin receptor (GHS-R1a) were purchased from Euroscreen (ES-410-C) and propagated in UltraCHO medium containing glutamine and supplemented with 1% heat inactivated foetal calf serum (FCS), 100 U/ml penicillin, 100 mg/l streptomycin and 0.8 g/l geneticin. Cells were sub-cultured twice a week with a 1:10 dilution. For passaging, cells were washed with 1× DPBS without calcium and magnesium, trypsinised for 10 min with 0.05% Trypsin/EDTA and resuspended in cell culture medium.
The Homogeneous Time-Resolved Fluorescence (HTRF) cAMP dynamic 2 kit (Cisbio International, France) was used as follows. CHO-hGHS—R1a or CHO-rGHS—R1a cells were seeded in a volume of 25 μl culture media at 10,000 cells/well (400,000 cells/ml) in Greiner white 384-well high volume plates and incubated overnight (18-24 h) at 37° C./5% CO2. Then, media was removed and 6 μl assay buffer [HBSS, 10 mM Hepes, 0.2% (w/v) BSA, 1.7 mM IBMX, (pH7.4)] were added to the wells. To generate a dose response up to 30 μM, 10 mM compound stocks in 100% (v/v) DMSO were firstly diluted in 50% (v/v) DMSO followed by a further dilution into assay buffer. Then, 4 μl of 2.5× compound (dose response as 9 point log serial dilution in assay buffer from 30 μM as maximum concentration) were added to each well achieving a final DMSO assay concentration of 0.8% (v/v). 0.1 μM forskolin was added as positive control. After 30 min (rGHS—R1a cell line) or 60 min (hGHS—R1a cell line) incubation at 37° C./5% CO2, 5 μl of cAMP-d2 and 5 μl of anti-cAMP antibody-cryptate, (both made in lysis buffer), were added to the plate followed by 1 h incubation at RT. During this time, cAMP produced by the cells competed with cAMP-d2 for the anti-cAMP antibody-cryptate molecule. Then, the plate was read on the Pherastar instrument (BMG, Germany) at two different emission wavelengths ([…]). Increasing levels of endogenous cAMP produced by cells could be followed by a decrease of FRET fluorescent signal and viceversa. Values represented by a change in arbitrary fluorescence ratios (665/620) were converted into cAMP concentrations by using a standard curve, the reagents for which were supplied with the kit. EC50 values of agonists were calculated using the nonlinear logistic function of the Prism 5 software (GraphPad, USA). Emax were expressed as relative values of the ghrelin response, which was defined as 100%.
(In general: cAMP levels reflect the balance of adenylyl cyclase and phosphodiesterase activity.)

Another experiment has as its system rat fundus. Kind of experiment: Rat fundus contractility assay (EFS-induced contraction of muscle strips). Conditions: for EC50: increase of EFS-induced contraction, mean of preparations from at least 3 animals. The protocol:
Male Sprague Dawley rats (180-250 g) were culled by cervical dislocation and the fundus was removed. Each fundus was placed on a Krebs Henseleit (KH) buffer soaked dissection dish and cut along the long curvature to form a flattened sheet that was pinned in each corner. Four adjacent longitudinal strips (10×3 mm) were cut and the mucosa removed by sharp dissection. Each muscle strip was mounted in a 10 ml organ bath containing oxygenated KH at 37° C. Each strip was connected to an isometric force transducer, calibrated initially using a 5 g weight. The signal (g tension) was amplified and responses recorded by a Powerlab data capture system, connected to a computer running Labchart software (version 5.0). Tissues were placed under 1 g tension for an equilibration period of 30 min or until the baseline tension had stabilised. Carbachol (CCh, 100 nM) was then administered to establish the maximum contractile response of each preparation. Tissues were washed thoroughly and left for 30 min to re-equilibrate. Next, the muscle strips underwent electrical field stimulation (EFS). Maximal EFS pulse trains of 12V, 5 Hz, 0.1 msec pulse width, for 2 sec every 60 sec were applied until consistent electrically-stimulated phasic contractions were recorded. The voltage was then reduced in 1V increments until a consistent submaximal (EC50-75) EFS response was observed. Ghrelin (100 nM) was administered and left until a maximum response was obtained. Tissues were then washed thoroughly and left for 30 min. Once the EFS-induced contraction had re-stabilised, cumulative additions (10 nM-10 μM) of each test compound were administered. Individual responses were calculated by determining the peak of the EFS-induced contraction minus the baseline. […] The mean EC50 value for compounds was generated from data obtained on stomach preparations from at least 3 different animals.

The target in experiment [2] is T1, human recombinant ghrelin receptor (GHS-R1a). Kind of experiment: Calcium assay, CHO-K1 cells expressing hGHS-R1a (Fluo-4). Format: cell-based. Conditions: for Emax: CHO-K1, relative to the Emax induced by MK-0677 (defined as 100%), read-out: hGHS-R1a Ca assay Emax/%. On the procedure:
as §1
Cells were diluted to achieve 1×10^6 cells/ml, seeded in 384-well black clear bottom CellBind plates at 25000 cells/well (25u1) and incubated overnight at 37° C./5% CO2 Cells were expected to be 85-90% confluent on the day of assay (checked under the microscope) to ensure a high quality assay. Media was manually removed and 40 μl of loading solution containing probenecid and Fluo-4 no wash dye (a calcium indicator, Invitrogen F36206) were added to each well. After 30 min at 37° C. followed by another 30 min at RT, cpds were added to the wells. To generate a dose response up to 30 μM, 10 mM compound stocks in 100% (v/v) DMSO were firstly diluted in 50% (v/v) DMSO. Then, serial dilutions aimed at a full logarithmic dose responses (8 point) were performed in assay buffer [1×HBSS, 20 mM Hepes, 0.1% (w/v) BSA] to give 2.5% (v/v) DMSO and 5× final compound concentrations. The final assay DMSO concentration was 0.5% (v/v). After loading the cells with Fluo-4 containing solution, plates were read on a CeIlLux instrument (Perkin Elmer). A protocol set up to add 10 μl of 5× compound and to read the plate for 60sec after adding the compound at 17th sec was used. Fluorescence excitation took place at 494 nm and emission at 516 nm. EC50 values of agonists were calculated by fitting the percent stimulation over background [(Max-Min)/Min] using the nonlinear logistic function of the Prism 5 software (GraphPad, USA).

[3] abbreviates: relative to the ghrelin response (defined as 100%).
[4] abbreviates: Rattus norvegicus, relative to the response to ghrelin (100 nM), defined as 100%.

T1 sequence (Q92847 whole entry): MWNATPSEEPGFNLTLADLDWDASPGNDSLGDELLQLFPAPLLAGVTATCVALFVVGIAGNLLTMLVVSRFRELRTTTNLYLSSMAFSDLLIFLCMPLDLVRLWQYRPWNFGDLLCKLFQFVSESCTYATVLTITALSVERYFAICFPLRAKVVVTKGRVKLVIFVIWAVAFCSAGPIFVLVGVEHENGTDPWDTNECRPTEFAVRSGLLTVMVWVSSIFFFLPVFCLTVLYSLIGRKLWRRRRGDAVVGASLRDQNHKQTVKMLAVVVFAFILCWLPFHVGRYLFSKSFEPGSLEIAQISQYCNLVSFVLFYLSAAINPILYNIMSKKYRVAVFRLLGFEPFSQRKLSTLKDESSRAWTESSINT

Turning to `CN1C[C@H](c2ccccc2)[C@]2(CCCN(C(=O)[C@@H](COCc3ccccc3)NC(=O)C(C)(C)N)C2)C1=O` (single isomer, unassigned) [Example 1.0(i)], the figures for the Emax (in experiment [1] (setting [3]); in the experiment with rat fundus (setting [4]); in experiment [2]) were 130%, 104% and 97%, respectively. In the experiment on rat fundus (Rattus norvegicus), the EC50 stood at 1700 nM.

As to `CC(C)N1CC(c2ccccc2)C2(CCCN(C(=O)[C@@H](COCc3ccccc3)NC(=O)C(C)(C)N)C2)C1=O` (single isomer, unassigned) [Example 1.5], the Emax was found to be 195% in experiment [1] (setting [3]), 80% with rat fundus (setting [4]) and 96% in experiment [2]. The compound also came in with an EC50 with rat fundus of 35 nM.

With `CC(C)N1CC(c2ccc(F)cc2)C2(CCCN(C(=O)[C@@H](Cc3cn(C)c4ccccc34)NC(=O)C(C)(C)N)C2)C1=O` (single isomer, unassigned) [Example 1.15], the Emax turned out to be 331% in experiment [1] (setting [3]), 123% in the experiment with rat fundus (setting [4]) and 112% in experiment [2]. The compound also yielded an EC50 with rat fundus (Rattus norvegicus) of 36 nM.

As for `CN1C[C@@H](c2ccc(F)cc2)[C@@]2(CCCN(C(=O)[C@@H](COCc3ccccc3)NC(=O)C(C)(C)N)C2)C1=O` [Example 1.2, 2-Amino-N-((2R)-3-(benzyloxy)-1-((4S,5R)-4-(4-fluorophenyl)-2-methyl-1-oxo-2,7-diazaspiro[4.5]decan-7-yl)-1-oxopropan-2-yl)-2-methylpropanamide], the Emax in experiment [1] (setting [3]) was 197%; in the experiment with rat fundus (setting [4]), 100%; in experiment [2] it was 89%. Further, the EC50 with rat fundus (Rattus norvegicus) was 7.5 nM.

Turning to `CNC(C)(C)C(=O)N[C@H](COCc1ccccc1)C(=O)N1CCCC2(C1)C(=O)N(C)CC2c1ccccc1` (single isomer, unassigned) [Example 1.17], the Emax was 124% in experiment [1] (setting [3]), 113% with rat fundus (setting [4]) and 107% in experiment [2]. In the experiment on rat fundus (Rattus norvegicus), this compound gave an EC50 of 137 nM.

With `CN1C[C@@H](c2ccccc2)[C@@]2(CCCN(C(=O)[C@@H](COCc3ccccc3)NC(=O)C(C)(C)N)C2)C1=O` (single isomer, unassigned) [Example 1.0(ii)], the values for the Emax (in experiment [1] (setting [3]); in the experiment with rat fundus (setting [4]); in experiment [2]) were 141%, 66% and 100%, respectively. The same compound had an EC50 in the experiment on rat fundus (Rattus norvegicus) of 13 nM.

On to `CN1CC(c2ccccc2)C2(CCCN(C(=O)[C@@H](COCc3ccccc3)NC(=O)C(C)(C)N)C2)C1=O` (single isomer, unassigned) [Example 1.20], for which the “hGHS-R1a cAMP assay Emax/%” value in experiment [1] (setting [3]) worked out at 169%. The compound also displayed an EC50 in the experiment on rat fundus of 393 nM. This compound also registered an Emax/% in the experiment with rat fundus (relative to the response to ghrelin (100 nM), defined as 100%) of 39%. In experiment [2], the Emax came to 99%.

Regarding `COc1ccc(COC[C@@H](NC(=O)C(C)(C)N)C(=O)N2CCCC3(C2)C(=O)N(C)CC3c2ccccc2)cc1` (single isomer, unassigned) [Example 6.0(ii), 2-Amino-N—[(R)-1-(4-methoxy-benzyloxymethyl)-2-((4S,5R)-2-methyl-1-oxo-4-phenyl-2,7-diaza-spiro[4.5]dec-7-yl)-2-oxo-ethyl]-2-methyl-propionamide or 2-Amino-N—[(R)-1-(4-methoxy-benzyloxymethyl)-2-(4R,5S)-2-methyl-1-oxo-4-phenyl-2,7-diaza-spiro[4.5]dec-7-yl)-2-oxo-ethyl]-2-methyl-propionamide], the results for the Emax in experiment [1] (setting [3]) and in experiment [2] were 268% and 103%, respectively.

Regarding `CN1CC(c2ccccc2)C2(CCN(C(=O)[C@@H](COCc3ccccc3)NC(=O)C(C)(C)N)C2)C1=O` (single isomer, unassigned) [Example 8.0], the EC50 in experiment [1] (CHO-hGHS-R1a cells, 60 min incubation, maximum concentration 30 μM) amounted to 2.38 µM; in experiment [2] (CHO-K1 cells expressing hGHS-R1a, read-out: hGHS-R1a Ca assay EC50/μM), 0.0046 µM. For the same compound, the values for the Emax in experiment [1] (setting [3]) and in experiment [2] were 129% and 101%, respectively.

With `Cc1ccc(COC[C@@H](NC(=O)C(C)(C)N)C(=O)N2CCCC3(C2)C(=O)N(C)CC3c2ccc(F)cc2)cc1` (stereo partly drawn) [Example 1.72, 2-amino-N-((2R)-1-(4-(4-fluorophenyl)-2-methyl-1-oxo-2,7-diazaspiro[4.5]decan-7-yl)-3-((4-methylbenzyl)oxy)-1-oxopropan-2-yl)-2-methylpropanamide], the Emax stood at 147% in experiment [1] (setting [3]) and 110% in experiment [2].

Regarding `CN1CC(c2ccccc2)C2(CCCN(C(=O)[C@@H](COCc3ccccc3)NC(=O)C(C)(C)N)CC2)C1=O` (single isomer, unassigned) [Example 9.0(iv)], the Emax in experiment [1] (setting [3]) was found to be 127%; in experiment [2], 96%.

Take `CN1CC(c2ccc(Cl)cc2)C2(CCCN(C(=O)[C@@H](COCc3ccccc3)NC(=O)C(C)(C)N)C2)C1=O` (single isomer, unassigned) [Example 1.8]: the Emax amounted to 149% in experiment [1] (setting [3]) and 102% in experiment [2].

Consider `Cc1ccccc1C1CN(C)C(=O)C12CCCN(C(=O)[C@@H](COCc1ccccc1)NC(=O)C(C)(C)N)C2` (single isomer, unassigned) [Example 1.51], for which the Emax in experiment [1] (setting [3]) amounted to 141%; in experiment [2] it was 98%.

As for `CN1CC(c2ccccc2)C2(CCCN(C(=O)[C@@H](COCC3CCCCC3)NC(=O)C(C)(C)N)C2)C1=O` (single isomer, unassigned) [Example 1.60], the figures for the Emax in experiment [1] (setting [3]) and in experiment [2] were 171% and 98%, respectively.

Turning to `CCC(N)(CC)C(=O)N[C@H](COCc1ccccc1)C(=O)N1CCC[C@@]2(C1)C(=O)N(C)C[C@H]2c1ccccc1` [Example 1.71, 2-amino-N-((R)-3-(benzyloxy)-1-((4S,5R)-2-methyl-1-oxo-4-phenyl-2,7-diazaspiro[4.5]decan-7-yl)-1-oxopropan-2-yl)-2-ethylbutanamide], the results for the Emax in experiment [1] (setting [3]) and in experiment [2] were 111% and 108%, respectively.

On to `CN1CC(c2ccc(F)cc2)C2(CCCN(C(=O)[C@@H](COCc3ccc(Cl)cc3)NC(=O)C(C)(C)N)C2)C1=O` (single isomer, unassigned) [Example 1.57], for which the Emax in experiment [1] (setting [3]) amounted to 173%; in experiment [2], 84%.
